# According to patent US9149475B2, “Protein kinase C inhibitors and uses thereof” (Rigel Pharmaceuticals, Inc., priority 2009, dated 2015):
# Tested on: Human primary T cells
# Experiment: IL-2 ELISA, human primary T cell, anti-CD3+CD28+ (whole cell assay)
# Type: cell-based
# Conditions: Homo sapiens, T-cell, 24 h, human primary T cells stimulated with anti-CD3 + anti-CD28, 24 hours
# How it was run: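 IL-2 secreted over 24 h at 37° C was quantified by ELISA after plate-bound αCD3 (1 μg/ml) and αCD28 (5 μg/ml) stimulation, or PMA (0.5 ng/ml) with ionomycin (0.1 μM) as counter-screen. Cells were IL-2-starved primary human T cells, expanded from volunteer PBMC and exposed to compound for 1 hr beforehand.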
row,Structure (SMILES),IC50 [nM]
1,"CN1C(C)(C)CC(Nc2nc(Nc3ccc(OCCN4CCOCC4)c(OC(F)F)c3)ncc2F)CC1(C)C [Compound I-121, N2-(4-(2-morpholinoethoxy)-3-(difluoromethoxy)phenyl)-5-fluoro-N4-(1,2,2,6,6-pentamethylpiperidin-4-yl)pyrimidine-2,4-diamine]",500 to 1000
2,"CC1(C)CC(Nc2nc(Nc3ccc(OC(C)(C)CN4CCOCC4)c(OC(F)F)c3)ncc2F)CC(C)(C)N1 [Compound I-122, N2-(4-(2-methyl-1-morpholinopropan-2-yloxy)-3-(difluoromethoxy)phenyl)-5-fluoro-N4-(2,2,6,6-tetramethylpiperidin-4-yl)pyrimidine-2,4-diamine]",> 1000
3,"CN1C(C)(C)CC(Nc2nc(Nc3ccc(OC(C)(C)CN4CCOCC4)c(OC(F)F)c3)ncc2F)CC1(C)C [Compound I-123, N2-(4-(2-methyl-1-morpholinopropan-2-yloxy)-3-(difluoromethoxy)phenyl)-5-fluoro-N4-(1,2,2,6,6-pentamethylpiperidin-4-yl)pyrimidine-2,4-diamine]",< 250
4,"CC1(C)CC(Nc2nc(Nc3ccc(OC(C)(C)CN4CCCC4)c(OC(F)F)c3)ncc2F)CC(C)(C)N1 [Compound I-124, N2-(4-(2-methyl-1-(pyrrolidin-1-yl)propan-2-yloxy)-3-(difluoromethoxy)phenyl)-5-fluoro-N4-(2,2,6,6-tetramethylpiperidin-4-yl)pyrimidine-2,4-diamine]",500 to 1000
5,"CC(C)Oc1ncc(Nc2ncc(F)c(NC3CC(C)(C)N(C)C(C)(C)C3)n2)cc1-c1nnnn1C [Compound I-126, 5-fluoro-N2-(6-isopropoxy-5-(1-methyl-1H-tetrazol-5-yl)pyridin-3-yl)-N4-(1,2,2,6,6-pentamethylpiperidin-4-yl)pyrimidine-2,4-diamine]",< 250
6,"CC(C)Oc1ncc(Nc2ncc(F)c(NC3CC(C)(C)NC(C)(C)C3)n2)cc1-c1nnnn1C [Compound I-127, 5-fluoro-N2-(6-isopropoxy-5-(1-methyl-1H-tetrazol-5-yl)pyridin-3-yl)-N4-(2,2,6,6-tetramethylpiperidin-4-yl)pyrimidine-2,4-diamine]",250 to 500
7,"CC(C)Oc1ncc(Nc2ncc(C(N)=O)c(NC3CC(C)(C)N(C)C(C)(C)C3)n2)cc1-c1nnnn1C [Compound I-128, 2-(6-isopropoxy-5-(1-methyl-1H-tetrazol-5-yl)pyridin-3-ylamino)-4-(1,2,2,6,6-pentamethylpiperidin-4-ylamino)pyrimidine-5-carboxamide]",> 1000
8,"CC(C)Oc1ncc(Nc2ncc(C#N)c(NC3CC(C)(C)N(C)C(C)(C)C3)n2)cc1-c1nnnn1C [Compound I-129, 2-(6-isopropoxy-5-(1-methyl-1H-tetrazol-5-yl)pyridin-3-ylamino)-4-(1,2,2,6,6-pentamethylpiperidin-4-ylamino)pyrimidine-5-carbonitrile]",500 to 1000
9,"CC(C)Oc1ncc(Nc2ncc(C#N)c(NC3CC(C)(C)NC(C)(C)C3)n2)cc1-c1nnnn1C [Compound I-130, 2-(6-isopropoxy-5-(1-methyl-1H-tetrazol-5-yl)pyridin-3-ylamino)-4-(2,2,6,6-tetramethylpiperidin-4-ylamino)pyrimidine-5-carbonitrile]",> 1000
10,"CC(C)Oc1ncc(Nc2ncc(F)c(NC3CC(C)(C)N(C)C(C)(C)C3)n2)cc1-c1nnnn1C(C)C [Compound I-131, 5-fluoro-N2-(6-isopropoxy-5-(1-isopropyl-1H-tetrazol-5-yl)pyridin-3-yl)-N4-(1,2,2,6,6-pentamethylpiperidin-4-yl)pyrimidine-2,4-diamine]",500 to 1000
11,"CC(C)Oc1ncc(Nc2ncc(F)c(NC3CC(C)(C)NC(C)(C)C3)n2)cc1-c1nnnn1C(C)C [Compound I-132, 5-fluoro-N2-(6-isopropoxy-5-(1-isopropyl-1H-tetrazol-5-yl)pyridin-3-yl)-N4-(2,2,6,6-tetramethylpiperidin-4-yl)pyrimidine-2,4-diamine]",500 to 1000
12,"CC(C)Oc1ncc(Nc2ncc(C(N)=O)c(NC3CC(C)(C)N(C)C(C)(C)C3)n2)cc1-c1nnnn1C(C)C [Compound I-133, 2-(6-isopropoxy-5-(1-isopropyl-1H-tetrazol-5-yl)pyridin-3-ylamino)-4-(1,2,2,6,6-pentamethylpiperidin-4-ylamino)pyrimidine-5-carboxamide]",500 to 1000
13,"CC(C)Oc1ncc(Nc2ncc(C(N)=O)c(NC3CC(C)(C)NC(C)(C)C3)n2)cc1-c1nnnn1C(C)C [Compound I-134, 2-(6-isopropoxy-5-(1-isopropyl-1H-tetrazol-5-yl)pyridin-3-ylamino)-4-(2,2,6,6-tetramethylpiperidin-4-ylamino)pyrimidine-5-carboxamide]",> 1000
14,"CC(C)Oc1ncc(Nc2ncc(C#N)c(NC3CC(C)(C)N(C)C(C)(C)C3)n2)cc1-c1nnnn1C(C)C [Compound I-135, 2-(6-isopropoxy-5-(1-isopropyl-1H-tetrazol-5-yl)pyridin-3-ylamino)-4-(1,2,2,6,6-pentamethylpiperidin-4-ylamino)pyrimidine-5-carbonitrile]",500 to 1000
15,"CC(C)Oc1ncc(Nc2ncc(C#N)c(NC3CC(C)(C)NC(C)(C)C3)n2)cc1-c1nnnn1C(C)C [Compound I-136, 2-(6-isopropoxy-5-(1-isopropyl-1H-tetrazol-5-yl)pyridin-3-ylamino)-4-(2,2,6,6-tetramethylpiperidin-4-ylamino)pyrimidine-5-carbonitrile]",> 1000
16,"CC(C)Oc1ncc(Nc2ncc(F)c(NC3CC(C)(C)N(C)C(C)(C)C3)n2)cc1-c1nnnn1C1CC1 [Compound I-137, N2-(5-(1-cyclopropyl-1H-tetrazol-5-yl)-6-isopropoxypyridin-3-yl)-5-fluoro-N4-(1,2,2,6,6-pentamethylpiperidin-4-yl)pyrimidine-2,4-diamine]",< 250
17,"CC(C)Oc1ncc(Nc2ncc(F)c(NC3CC(C)(C)NC(C)(C)C3)n2)cc1-c1nnnn1C1CC1 [Compound I-138, N2-(5-(1-cyclopropyl-1H-tetrazol-5-yl)-6-isopropoxypyridin-3-yl)-5-fluoro-N4-(2,2,6,6-tetramethylpiperidin-4-yl)pyrimidine-2,4-diamine]",500 to 1000
18,"CC(C)Oc1ncc(Nc2ncc(C#N)c(NC3CC(C)(C)N(C)C(C)(C)C3)n2)cc1-c1nnnn1C1CC1 [Compound I-139, 2-(5-(1-cyclopropyl-1H-tetrazol-5-yl)-6-isopropoxypyridin-3-ylamino)-4-(1,2,2,6,6-pentamethylpiperidin-4-ylamino)pyrimidine-5-carbonitrile]",< 250
19,"CC(C)Oc1ncc(Nc2ncc(C#N)c(NC3CC(C)(C)NC(C)(C)C3)n2)cc1-c1nnnn1C1CC1 [Compound I-140, 2-(5-(1-cyclopropyl-1H-tetrazol-5-yl)-6-isopropoxypyridin-3-ylamino)-4-(2,2,6,6-tetramethylpiperidin-4-ylamino)pyrimidine-5-carbonitrile]",250 to 500
20,"CC1(C)CC(Nc2nc(Nc3cnc(OCCN4CCCC4=O)c(OC(F)F)c3)ncc2F)CC(C)(C)N1 [Compound I-141, 1-(2-(3-(difluoromethoxy)-5-(5-fluoro-4-(2,2,6,6-tetramethylpiperidin-4-ylamino)pyrimidin-2-ylamino)pyridin-2-yloxy)ethyl)pyrrolidin-2-one]",> 1000
21,"CN1C(C)(C)CC(Nc2nc(Nc3cnc(OCCN4CCCC4)c(OC(F)F)c3)ncc2F)CC1(C)C [Compound I-142, N2-(5-(difluoromethoxy)-6-(2-(pyrrolidin-1-yl)ethoxy)pyridin-3-yl)-5-fluoro-N4-(1,2,2,6,6-pentamethylpiperidin-4-yl)pyrimidine-2,4-diamine]",> 1000
22,"CC1(C)CC(Nc2nc(Nc3cnc(OCCN4CCCC4)c(OC(F)F)c3)ncc2F)CC(C)(C)N1 [Compound I-143, N2-(5-(difluoromethoxy)-6-(2-(pyrrolidin-1-yl)ethoxy)pyridin-3-yl)-5-fluoro-N4-(2,2,6,6-tetramethylpiperidin-4-yl)pyrimidine-2,4-diamine]",> 1000
23,"CC1(C)CC(Nc2nc(Nc3ccc(OC4CCN(CC(F)(F)F)CC4)c(OC(F)F)c3)ncc2F)CC(C)(C)N1 [Compound I-144, N2-(4-(1-(2,2,2-trifluoroethyl)piperidin-4-yloxy)-3-(difluoromethoxy)phenyl)-5-fluoro-N4-(2,2,6,6-tetramethylpiperidin-4-yl)pyrimidine-2,4-diamine]",500 to 1000
24,"CN1C(C)(C)CC(Nc2nc(Nc3ccc(OC4CCN(CC(F)(F)F)CC4)c(OC(F)F)c3)ncc2F)CC1(C)C [Compound I-145, N2-(4-(1-(2,2,2-trifluoroethyl)piperidin-4-yloxy)-3-(difluoromethoxy)phenyl)-5-fluoro-N4-(1,2,2,6,6-pentamethylpiperidin-4-yl)pyrimidine-2,4-diamine]",250 to 500
25,"CC(C)N1CC[C@@H](Oc2ccc(Nc3ncc(F)c(NC4CC(C)(C)NC(C)(C)C4)n3)cc2OC(F)F)C1 [Compound I-146, N2-(4-((R)-1-isopropylpyrrolidin-3-yloxy)-3-(difluoromethoxy)phenyl)-5-fluoro-N4-(2,2,6,6-tetramethylpiperidin-4-yl)pyrimidine-2,4-diamine]",250 to 500
26,"CC(C)N1CC[C@@H](Oc2ccc(Nc3ncc(F)c(NC4CC(C)(C)N(C)C(C)(C)C4)n3)cc2OC(F)F)C1 [Compound I-147, N2-(4-((R)-1-isopropylpyrrolidin-3-yloxy)-3-(difluoromethoxy)phenyl)-5-fluoro-N4-(1,2,2,6,6-pentamethylpiperidin-4-yl)pyrimidine-2,4-diamine]",< 250

# Same assay, conditions: human primary T cells stimulated with anti-CD3 + anti-CD28, 24 hours
row,Structure (SMILES),IC50 [nM]
1,"CC1(C)CC(Nc2nc(Nc3ccc(F)c(-n4cnnn4)c3)ncc2C(N)=O)CC(C)(C)N1 [Compound I-125, 5-aminocarbonyl-N2-[4-fluoro-3-(1H-tetrazol-1-yl)]phenyl-N4-(2,2,6,6-tetramethylpiperidin-4-yl)-2,4-pyrimidinediamine]",250 to 500
